Reference: article PMC8248988, “A signal capture and proofreading mechanism for the KDEL-receptor explains selectivity and dynamic range in ER retrieval” (eLife, 2021)

Experiments:
Assay type in all cases: cell-based
Details in all cases: COS-7 cells
[1] = target: T1, human KDELR1 D50N/N54R (Homo sapiens, UniProt P24390, D50N/N54R); assay: ER retrieval assay, KDELR1 D50N/N54R-GFP
T1 construct: expressed in transfected cells; host or cells: COS-7
Excerpt: (§1) To create KDELR1-GFP and KDELR2-GFP, the reading frames for Homo sapiens KDELR1 (Uniprot: P24390) and KDELR2 (Uniprot: P33947) were cloned into the pEF5/FRT low level mammalian expression vector with a C-terminal 20 amino acid linker made up of 5 copies of Gly-Ser-Ser-Ser followed by GFP. Specific point mutations were introduced using the Quickchange protocol (Stratagene) and are described in the key resources table and figures. To create the mScarlet-KDEL^sec ligand construct, mScarlet with an N-terminal hGH signal peptide and the 16 C-terminal residues of human BiP at its C-terminus, containing the KDEL signal, was cloned into the pcDNA3.1 vector. […] The Golgi marker protein TGN46 was detected by antibody (sheep anti-TGN46 AHP500G; AbD Serotec) and an Alexa 647 conjugated secondary anti-sheep secondary (A-21448, Invitrogen). In Figure 1d and e, endogenous KDELR was detected by antibody (mouse anti-KDELR ADI-VAA-PT048; Enzo Life Sciences) and Alexa 488 conjugated anti-mouse secondary antibody (A-21202, Invitrogen). For retrieval assays in other figures, KDELR-GFP fusion proteins were directly detected by fluorescence. The mScarlet-xDEL fusion proteins were directly detected by fluorescence. […] The fraction of KDEL receptor in the Golgi apparatus was calculated by dividing the Golgi signal by the total cell signal. […]

[2] = target: T2, human KDELR1 E117N (Homo sapiens, UniProt P24390, E117N); assay: ER retrieval assay, KDELR1 E117N-GFP
T2 construct: expressed in transfected cells; host or cells: COS-7
Excerpt: as §1

[3] = target: T3, human KDELR1 E117Q (Homo sapiens, UniProt P24390, E117Q); assay: ER retrieval assay, KDELR1 E117Q-GFP
T3 construct: expressed in transfected cells; host or cells: COS-7
Excerpt: as §1

[4] = target: T4, human KDELR1 D50N/N54K/E117Q (Homo sapiens, UniProt P24390, D50N/E117Q/N54K); assay: ER retrieval assay, KDELR1 D50N/N54K/E117Q-GFP (K. lactis like)
T4 construct: expressed in transfected cells; host or cells: COS-7
Excerpt: as §1

T3 sequence (P24390 whole entry E117Q): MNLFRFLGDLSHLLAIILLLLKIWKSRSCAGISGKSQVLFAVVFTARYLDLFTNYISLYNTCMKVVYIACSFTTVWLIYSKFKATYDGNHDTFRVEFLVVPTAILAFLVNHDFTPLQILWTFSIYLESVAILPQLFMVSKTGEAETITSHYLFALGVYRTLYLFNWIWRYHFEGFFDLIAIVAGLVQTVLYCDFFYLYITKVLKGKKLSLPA
T4 sequence (P24390 whole entry D50N/N54K/E117Q): as the sequence (P24390 whole entry E117Q) above, with D50N, N54K counted along it
T1 sequence (P24390 whole entry D50N/N54R): as the sequence (P24390 whole entry E117Q) above, with D50N, N54R, Q117E counted along it
T2 sequence (P24390 whole entry E117N): as the sequence (P24390 whole entry E117Q) above, with Q117N counted along it

ligand-induced receptor retrieval to the ER (in words) [1]: gave a response
ligand-induced receptor retrieval to the ER (in words) [2]: move to the ER
ligand-induced receptor retrieval to the ER (in words) [3]: move to the ER
ligand-induced receptor retrieval to the ER (in words) [4]: improved the response
Substance: ADEL [pcDNA3.1 hGHss-mScarlet-H. sapiens BiP639-654K651A (ADEL^SEC), secreted mScarlet fusion with human BiP C-terminus, ADEL signal]
